Measurements published in patent US20230279016A1, “Tetrahydropyrazolopyrimidines and Related Analogs for Inhibiting YAP/TAZ-TEAD” (THE KATHOLIEKE UNIVERSITEIT LEUVEN, priority 2021, published 2023).
pEC50: −log10 of the molar value.

Key:
Assay type in all cases: cell-based
[1] = tested on: NCI-H226 mesothelioma cell line; experiment: Mesothelioma cell line proliferation assay, NCI-H226; settings: NCI-H226, 6 days with compound, cell viability by ATPlite
Method in brief: (§1)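 Cells were seeded at 1500 cells/well in RPMI 1640 with 10% FBS, left overnight, then exposed to DMSO-dissolved compounds in dose-response for 6 days at 37 °C, 5% CO2. Viability was measured by ATPlite luminescence, converted to percent inhibition, and used to derive EC50.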

[2] = tested on: YAP/TAZ-TEAD transcription; experiment: Reporter gene assay for measuring the inhibition of YAP/TAZ-TEAD transcription (TEAD-responsive element luciferase reporter in Hek293T cells); settings: Hek293T cells transiently transfected with TEAD-responsive element luciferase reporter, 24 hours incubation
Method in brief: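 Hek293T cells transiently transfected with TEAD-responsive luciferase reporter, exposed to compound for 24 h at 37° C/5% CO2, then read by luminescence. Percent inhibition normalized to vehicle (0%) and positive control inhibitor (100%); EC50 reported as activity ranges.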

[3] = tested on: NCI-H2052 mesothelioma cell line; experiment: Mesothelioma cell line proliferation assay, NCI-H2052; settings: NCI-H2052, 6 days with compound, cell viability by ATPlite
Method in brief: as §1

Row | Structure (SMILES) | pEC50 [1] | pEC50 [2] | pEC50 [3] | pEC50 ([1]; Homo sapiens, NCI-H226, 144 h) | pEC50 ([2]; Homo sapiens, HEK-293T, 24 h) | pEC50 ([3]; Homo sapiens, NCI-H2052, 144 h)
1 | C=CC(=O)NCC1CN(c2ccc(OC(F)(F)F)cc2)c2ccnn2C1 (single isomer, unassigned) [Cpd. No. 011-En2, (R)- or (S)-N-((4-(4-(trifluoromethoxy)phenyl)-4,5,6,7-tetrahydropyrazolo[1,5-a]pyrimidin-6-yl)methyl)acrylamide] | > 6.00 | > 6.00 | < 5.00 |  |  | 
2 | O=C1NCCC12CN(c1ccc(C(F)(F)F)cc1)c1ccnn1C2 (stereo not drawn) [Cpd. No. 087, 4-(4-(trifluoromethyl)phenyl)-4,5-dihydro-7H-spiro[pyrazolo[1,5-a]pyrimidine-6,3′-pyrrolidin]-2′-one] |  |  |  | < 5.00 | > 6.00 | < 5.00
3 | C=CC(=O)NC1CN(c2ccc(OC(F)(F)F)cc2)c2ccnn2C1 (stereo not drawn) [Cpd. No. 063, N-(4-(4-(trifluoromethoxy)phenyl)-4,5,6,7-tetrahydropyrazolo[1,5-a]pyrimidin-6-yl)acrylamide] |  |  |  | > 6.00 | > 6.00 | > 6.00
4 | C=CC(=O)NCC1CN(c2ccc(C3CC3)cc2)c2ccnn2C1 (single isomer, unassigned) [Cpd. No. 022-En2, (R)- or (S)-N-((4-(4-cyclopropylphenyl)-4,5,6,7-tetrahydropyrazolo[1,5-a]pyrimidin-6-yl)methyl)acrylamide] | > 6.00 | > 6.00 | < 5.00 |  |  | 
5 | C=CC(=O)NCC1CN(Cc2ccc(C(F)(F)F)cc2)c2ccnn2C1 (stereo not drawn) [Cpd. No. 048, N-((4-(4-(trifluoro-methyl)benzyl)-4,5,6,7-tetrahydropyrazolo[1,5-a]pyrimidin-6-yl)methyl)acrylamide] |  |  |  | > 6.00 | > 6.00 | > 6.00
